# Data: US4352817A, “Imidazo-diazepines and their use” (priority 1982, dated 1982)
# Tests used:
# [1] = molecular target: central benzodiazepine receptors (cerebral cortex); test: Inhibition of binding of tritiated diazepam at the specific benzodiazepine receptors in the cerebral cortex
# Description: The affinity of compounds of formula I to the central benzodiazepine receptors was determined according to the method described in Life Science 20, 2101-2110 (1977) and Science 198, 849-851 (1977). According to this method, the inhibition of the binding of tritiated diazepam at the specific benzodiazepine receptors in the cerebral cortex by the respective test substances is ascertained. The IC50 ("50% inhibiting concentration") is that concentration of the respective test substance which brings about a 50 percent inhibition of the specific binding of the tritiated diazepam at the specific benzodiazepine receptors in the cerebral cortex.
# [2] = tested on: diazepam effect in the pentetrazole test; test: Antagonism of diazepam in the pentetrazole test; format: in vivo, mice; conditions: for ED50: Mus musculus, po, 0.25 h, mice, diazepam 5 mg/kg i.p. 1 hour before pentetrazole 120 mg/kg i.p., test compound p.o. 15 minutes before pentetrazole
# Description: This property was used to evaluate the test described hereinafter which permits the determination of compounds which are capable of antagonizing the central properties of 1,4-benzodiazepines which have tranquillizing activity.
# The antagonistic activity of the compounds investigated, i.e. their ability to counteract the activity of the diazepam in the pentetrazole test, is determined by counting the mice which suffer convulsive attacks in this test.
# (§1) In the following Table there are presented the results which have been obtained with representative members of the class of compound defined by formula I in the test previously described. The ED50 is the amount of test compound in mg/kg (p.o.) which counteracts in 50% of the animals the diazepam effect in the above test. Moreover, the Table contains the IC50 value defined above for all test compounds listed therein as well as data concerning the acute toxicity of certain of these compounds (LD50 in mg/kg in the case of single oral administration to mice).
# [3] = tested on: Schistosoma mansoni; test: In vitro schistosomicidal activity (motility of worm pairs); format: cell-based; set-up: key to Activity: worm pairs motionless within 15 minutes; b: worm pairs show normal motility during the test period of 120 hours; conditions: for Activity: 37° C., 120 hours
# Description: In order to test the in vitro activity of preparations, worm pairs of Schistosoma mansoni are isolated from mice and incubated at 37° C. in a nutrient medium. Preparations are added in the form of a solution or as a suspension. The motility of the worms is observed under a microscope and registered during the test period of 120 hours. A schistosomicidal activity of a preparation manifests itself in the more or less rapid loss of motility of the worms. Control worms in the nutrient medium without the addition of a preparation maintain their normal motility during the entire test period of 120 hours.
# [4] = tested on: Schistosoma mansoni; test: Schistosomicidal activity in infected golden hamsters; format: in vivo; conditions: Hamster
# Description: (§2) Mice and golden hamsters are infected subcutaneously with 60 cercaria of Schistosoma mansoni. About 42 days after the infection, they are treated orally with a single dosage of the preparation to be tested. 5 animals are used per preparation and dosage. 10 untreated animals are used as controls. The animals are killed and dissected 2 weeks (hamster) or 3 weeks (mice) after the treatment. Worm pairs in mesenteric veins, portal vein and liver are dissected-out, counted and the condition of the worms (living or dead) are registered. A schistosomicidal activity of a preparation manifests itself in the appearance of dead worms in the vessels of the liver. Dead worms are never found in untreated control animals. The test is evaluated by calculating the percentage of dead worm pairs in the liver of infected, treated animals.
# [5] = tested on: Schistosoma mansoni; test: Schistosomicidal activity in infected mice; format: in vivo; conditions: for Schistosomicidal activity in %: Mouse
# Description: as §2
# [6] = Acute toxicity, single oral administration to mice; conditions: mouse, in vivo
# Description: as §1
SMILES,IC50 [1] [nM],ED50 [2] [mg/kg],also measured
"CN1Cc2c(C(=O)OC(C)(C)C)ncn2-c2ccccc2C1=S [(a) H H --CH3 S, t-butyl 5,6-dihydro-5-methyl-6-thioxo-4H-imidazo[1,5-a][1,4]benzodiazepine-3-carboxylate]",8.9,7.1,
"CN1C(=O)CN=C(c2ccccc2)c2cc(Cl)ccc21 [diazepam, reference compound]",,,"experimental animals protected from convulsive attacks in the pentetrazole test ([2]; diazepam 5 mg/kg i.p., more than 900 mice): protects all experimental animals from convulsive attacks"
"CC1N=C(c2ccccc2Cl)c2cc([N+](=O)[O-])ccc2NC1=O (single isomer, unassigned; (+)) [Compound S, (+)-5-(o-chlorophenyl)-1,3-dihydro-3-methyl-7-nitro-2H-1,4-benzodiazepin-2-one, reference compound]",,,Activity ([3]; Compound S 25 ug/ml alone): a (worm pairs motionless within 15 minutes); Schistosomicidal activity in % ([4]; Compound S 75 mg/kg p.o. alone): 100%; Schistosomicidal activity in % ([5]; Compound S 75 mg/kg p.o. alone): 100%
"CN1Cc2c(C(=O)OC(C)(C)C)ncn2-c2cccc(C#N)c2C1=O [(a) H CN --CH3 O, t-butyl 7-cyano-5,6-dihydro-5-methyl-6-oxo-4H-imidazo[1,5-a][1,4]benzodiazepine-3-carboxylate]",10,1.22,
"CN1Cc2c(C(=O)OC(C)(C)C)ncn2-c2ccccc2C1=O [(a) H H --CH3 O, t-butyl 5,6-dihydro-5-methyl-6-oxo-4H-imidazo[1,5-a][1,4]benzodiazepine-3-carboxylate]",3.3,4.7,LD50 [6]: 625 mg/kg
"CN1Cc2c(C(=O)OC(C)(C)C)ncn2-c2cccc(Cl)c2C1=O [(a) H Cl --CH3 O, t-butyl 7-chloro-5,6-dihydro-5-methyl-6-oxo-4H-imidazo[1,5-a][1,4]benzodiazepine-3-carboxylate]",3,0.2,Activity ([3]; Compound A 25 ug/ml alone): b; Activity ([3]; Compound A 100 ug/ml alone): b; influence on schistosomicidal activity of compound S ([3]; in vitro test): not influenced detrimentally; Schistosomicidal activity in % ([4]; Compound A 225 mg/kg p.o. alone): 0%; LD50 [6]: 312 mg/kg; Schistosomicidal activity in % ([5]; Compound A 300 mg/kg p.o. alone): 0%; influence on schistosomicidal activity of compound S ([5]; animal tests (mice and hamsters)): not influenced detrimentally
"CN1Cc2c(C(=O)OC(C)(C)C)ncn2-c2cccc(Br)c2C1=O [(a) H Br --CH3 O, t-butyl 7-bromo-5,6-dihydro-5-methyl-6-oxo-4H-imidazo[1,5-a][1,4]benzodiazepine-3-carboxylate]",2.3,0.13,
"CN1Cc2c(C(=O)OC(C)(C)C)ncn2-c2ccc(F)cc2C1=O [(a) F H --CH3 O, t-butyl 8-fluoro-5,6-dihydro-5-methyl-6-oxo-4H-imidazo[1,5-a][1,4]benzodiazepine-3-carboxylate]",1.4,8.4,
"CN1Cc2c(C(=O)OC(C)(C)C)ncn2-c2cccc(I)c2C1=O [(a) H I --CH3 O, t-butyl 5,6-dihydro-7-iodo-5-methyl-6-oxo-4H-imidazo[1,5-a][1,4]benzodiazepine-3-carboxylate]",2.6,0.14,
